± gives the standard deviation of the averaged measurements.
How the values were obtained:
FORETINIB = compound: COc1cc2c(Oc3ccc(NC(=O)C4(C(=O)Nc5ccc(F)cc5)CC4)cc3F)ccnc2cc1OCCCN1CCOCC1 [FORETINIB]; experiment: surviving fraction relative to DMSO-only wells; higher = less growth inhibition; conditions: exposure time: 5 days
Procedure, shortened: (§1)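 Luminescence normalised to the median of DMSO-only wells defines surviving fraction, with viability read by CellTiter-Glo. Signal was recorded after 10 minutes at room temperature, once log-phase tumour cell lines seeded at 250–500 cells per well in 384-well plates had spent 24 hours settling and then five days under continuous exposure to inhibitors at 0.5, 1, 5, 10, 50, 100, 500 and 1000 nM.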

CRIZOTINIB = compound: C[C@@H](Oc1cc(-c2cnn(C3CCNCC3)c2)cnc1N)c1c(Cl)ccc(F)c1Cl [CRIZOTINIB]; experiment: as above; conditions: exposure time: 5 days
Procedure, shortened: as §1

| Test System | surviving fraction (FORETINIB; 0.5 nM) | surviving fraction (FORETINIB; 1 nM) | surviving fraction (FORETINIB; 5 nM) | surviving fraction (FORETINIB; 10 nM) | surviving fraction (FORETINIB; 50 nM) | surviving fraction (FORETINIB; 100 nM) | surviving fraction (FORETINIB; 500 nM) | surviving fraction (FORETINIB; 1000 nM) | surviving fraction (CRIZOTINIB; 0.5 nM) | surviving fraction (CRIZOTINIB; 5 nM) | surviving fraction (CRIZOTINIB; 10 nM) | surviving fraction (CRIZOTINIB; 50 nM) | surviving fraction (CRIZOTINIB; 100 nM) | surviving fraction (CRIZOTINIB; 500 nM) | surviving fraction (CRIZOTINIB; 1000 nM) | surviving fraction (CRIZOTINIB; 1 nM) |
| --- | --- | --- | --- | --- | --- | --- | --- | --- | --- | --- | --- | --- | --- | --- | --- | --- |
| HCC202 BREAST | 1.04 ± 0.11 | 1.33 ± 0.14 | 1.24 ± 0.37 | 1.02 ± 0.033 | 1.48 ± 0.2 | 1.34 ± 0.33 | 1.18 ± 0.15 | 0.995 ± 0.23 | 1.38 ± 0.033 | 1.24 ± 0.47 | 1.05 ± 0.069 | 1.13 ± 0.018 | 1.25 ± 0.37 | 1.12 ± 0.12 | 1.246 ± 0.0085 | – |
| HCC1395 BREAST | 1.07 ± 0.09 | 1.08 ± 0.11 | 1.26 ± 0.076 | 1.17 ± 0.048 | 1.09 ± 0.083 | 1.02 ± 0.034 | 0.939 ± 0.063 | 0.796 ± 0.085 | 1.06 ± 0.18 | 1.33 ± 0.061 | 1.44 ± 0.15 | 1.29 ± 0.18 | 1.28 ± 0.018 | 1.21 ± 0.14 | 1.21 ± 0.061 | 1.28 ± 0.025 |
| HCC1806 BREAST | 1.13 ± 0.071 | 0.942 ± 0.035 | 1.21 ± 0.031 | 1.12 ± 0.038 | 1.16 ± 0.11 | 1.12 ± 0.056 | 0.468 ± 0.014 | 0.452 ± 0.033 | 1.02 ± 0.13 | 1.1 ± 0.065 | – | 1.13 ± 0.066 | – | 0.634 ± 0.036 | 0.318 ± 0.007 | 1.09 ± 0.056 |
| HCC1954 BREAST | 0.975 ± 0.071 | 1.16 ± 0.25 | 1.09 ± 0.08 | 1.14 ± 0.1 | 0.965 ± 0.14 | 0.903 ± 0.05 | 0.6953 ± 0.006 | 0.418 ± 0.068 | 1.16 ± 0.14 | – | 1.55 ± 0.21 | 1.03 ± 0.18 | 0.987 ± 0.06 | 0.831 ± 0.082 | 0.689 ± 0.12 | 1.25 ± 0.11 |
| HCT15 LARGE INTESTINE | 1.08 ± 0.1 | 1.09 ± 0.084 | 1.06 ± 0.09 | 1.05 ± 0.073 | 1.07 ± 0.091 | 1.11 ± 0.097 | 0.217 ± 0.046 | 0.203 ± 0.042 | 1.05 ± 0.083 | 1.14 ± 0.044 | – | 1.18 ± 0.042 | 1.17 ± 0.04 | 1.09 ± 0.049 | 0.265 ± 0.022 | 1.1 ± 0.1 |
| HELA CERVIX | 1.09 ± 0.037 | 1.05 ± 0.091 | 1.1 ± 0.039 | 1.05 ± 0.052 | 1.14 ± 0.11 | 1.15 ± 0.042 | 0.659 ± 0.073 | 0.07233 ± 0.00058 | 1.09 ± 0.057 | 1.08 ± 0.055 | 1.09 ± 0.03 | 1.09 ± 0.12 | 1.07 ± 0.08 | 1.09 ± 0.072 | 0.581 ± 0.028 | 1.07 ± 0.062 |
| HOS BONE | 1.014 ± 0.0075 | 1.01 ± 0.012 | 1.057 ± 0.0045 | 1.01 ± 0.022 | 1.02 ± 0.075 | 1.02 ± 0.036 | 0.55 ± 0.024 | 0.451 ± 0.013 | 1.03 ± 0.026 | 1.05 ± 0.017 | – | 1.04 ± 0.025 | 1.09 ± 0.022 | 0.685 ± 0.041 | 0.575 ± 0.014 | – |
| HOSMNG BONE | 0.915 ± 0.11 | 0.904 ± 0.074 | 0.895 ± 0.066 | 0.855 ± 0.036 | 0.55 ± 0.039 | 0.381 ± 0.014 | 0.128 ± 0.0089 | 0.065 ± 0.0044 | 0.954 ± 0.09 | – | – | 0.649 ± 0.012 | 0.501 ± 0.017 | 0.329 ± 0.032 | 0.227 ± 0.011 | 0.983 ± 0.1 |
| HSSYII SYNOVIAL | 0.972 ± 0.039 | 0.941 ± 0.031 | 0.956 ± 0.038 | 0.92 ± 0.039 | 0.85 ± 0.028 | 0.771 ± 0.028 | 0.208 ± 0.021 | 0.0695 ± 0.0013 | 1.04 ± 0.045 | 1.03 ± 0.05 | 1 ± 0.083 | 0.934 ± 0.034 | – | 0.392 ± 0.037 | 0.189 ± 0.0013 | 1.03 ± 0.037 |
| HT1080 SOFT TISSUE | 1.01 ± 0.026 | 1.06 ± 0.037 | 1 ± 0.017 | 1.01 ± 0.033 | 1.04 ± 0.048 | 0.996 ± 0.017 | 0.779 ± 0.025 | 0.3927 ± 0.0032 | 1.07 ± 0.038 | 1.07 ± 0.016 | 1.06 ± 0.017 | 1.04 ± 0.062 | 1.07 ± 0.052 | 1.02 ± 0.042 | 0.798 ± 0.064 | 1.07 ± 0.028 |
| HU09 BONE | 0.923 ± 0.11 | 1.01 ± 0.063 | 1 ± 0.08 | 0.958 ± 0.082 | 0.625 ± 0.1 | 0.496 ± 0.087 | 0.201 ± 0.016 | 0.0877 ± 0.0029 | 0.86 ± 0.084 | 1.13 ± 0.099 | 1.14 ± 0.06 | 1.02 ± 0.044 | 1.02 ± 0.042 | 0.511 ± 0.063 | 0.233 ± 0.048 | 0.956 ± 0.13 |

— the supplement of paper PMC6045584
